Laboratory results reported in BindingDB's records for patent WO2022076764 (BRISTOL-MYERS SQUIBB COMPANY, 2022).

Experiments:
[1] = target: T1, N-formyl peptide receptor 2 (Homo sapiens, UniProt P25090)
T1 sequence (P25090 whole entry): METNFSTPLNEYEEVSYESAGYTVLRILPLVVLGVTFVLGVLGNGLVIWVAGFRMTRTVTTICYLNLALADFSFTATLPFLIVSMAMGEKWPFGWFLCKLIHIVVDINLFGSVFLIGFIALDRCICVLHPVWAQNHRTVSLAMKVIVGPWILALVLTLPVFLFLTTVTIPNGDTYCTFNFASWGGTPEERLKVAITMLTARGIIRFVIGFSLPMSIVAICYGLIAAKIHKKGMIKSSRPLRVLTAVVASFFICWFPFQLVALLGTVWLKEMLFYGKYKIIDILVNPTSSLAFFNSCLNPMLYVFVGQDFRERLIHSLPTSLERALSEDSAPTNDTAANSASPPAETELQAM

[2] = target: T2, fMet-Leu-Phe receptor (Homo sapiens, UniProt P21462)
T2 sequence (P21462 whole entry): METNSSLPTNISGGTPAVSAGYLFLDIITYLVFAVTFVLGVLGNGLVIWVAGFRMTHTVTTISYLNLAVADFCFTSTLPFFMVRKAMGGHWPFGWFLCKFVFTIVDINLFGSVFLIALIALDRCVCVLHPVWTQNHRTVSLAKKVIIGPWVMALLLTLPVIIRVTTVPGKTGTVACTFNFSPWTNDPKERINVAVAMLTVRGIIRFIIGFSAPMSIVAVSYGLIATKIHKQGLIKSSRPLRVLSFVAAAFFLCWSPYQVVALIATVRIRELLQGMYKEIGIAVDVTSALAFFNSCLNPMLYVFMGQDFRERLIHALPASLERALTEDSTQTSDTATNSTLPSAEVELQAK

| SMILES | EC50 [1] [nM] | EC50 [2] [nM] |
| --- | --- | --- |
| COc1cc(F)c(-n2cc(C(=O)N3CCN(C)CC3)nc2NC(=O)c2ccc(OC(F)F)cc2)c(F)c1 [WO2022076764, Example 55] | > 10000 | 280 |
| COc1cc(F)c(-n2cc(-c3ccn[nH]3)nc2NC(=O)c2ccc(OC(F)F)cc2)c(F)c1 [WO2022076764, Example 80] | 500 | 59 |
| COc1cc(F)c(-n2cc(Cc3ccccc3)nc2NC(=O)c2ccc(OC(F)F)cc2)c(F)c1 [WO2022076764, Example 71] | 1300 | 46 |
| COc1cc(F)c(-n2cc(-c3nccs3)nc2NC(=O)c2ccc(OC(F)F)cc2)c(F)c1 [WO2022076764, Example 40] | 1000 | 11 |
| COc1cc(F)c(-n2c(NC(=O)c3ccc(OC(F)F)cc3)nc(-c3ccc(Cl)cc3)c2C)c(F)c1 [WO2022076764, Example 13] | 550 | 53 |
| COc1cc(F)c(-n2cc(C(=O)NCCO)nc2NC(=O)c2ccc(OC(F)F)cc2)c(F)c1 [WO2022076764, Example 53] | 4100 | 130 |
| COc1cc(F)c(-n2cc(-c3cccc(Cl)c3)nc2NC(=O)c2ccc(OC(F)F)cc2)c(F)c1 [WO2022076764, Example 12] | 450 | 15 |
| COc1cc(F)c(-n2cc(C3CC(NS(C)(=O)=O)C3)nc2NC(=O)c2ccc(OC(F)F)cc2)c(F)c1 (stereo not given) [WO2022076764, Example 83] | 400 | 5 |
| COc1cc(F)c(-n2cc(Cc3ccccn3)nc2NC(=O)c2ccc(OC(F)F)cc2)c(F)c1 [WO2022076764, Example 78] | 870 | 56 |
| COc1ccc(-n2cc(C34CC5CC(CC(C5)C3)C4)nc2NC(=O)c2ccc(OC(F)F)cc2)cc1 [WO2022076764, Example 31] | > 10000 | 320 |
| COc1ccc(-n2cc(-c3nc4cc(Cl)ccc4o3)nc2NC(=O)c2ccc(OC(F)F)cc2)cc1 [WO2022076764, Example 26] | 400 | 72 |
| COc1cc(F)c(-n2cc(-c3ccc(F)c(F)c3)nc2NC(=O)c2ccc(OC(F)F)cc2)c(F)c1 [WO2022076764, Example 36] | 320 | 31 |
| COc1cc(F)c(-n2cc(C(C)C)nc2NC(=O)c2ccc(OC(F)F)cc2)c(F)c1 [WO2022076764, Example 70] | 970 | 31 |
| CCc1cn(-c2c(F)cc(OC)cc2F)c(NC(=O)c2ccc(OC(F)F)cc2)n1 [WO2022076764, Example 39] | 1000 | 21 |
| COc1cc(F)c(-n2cc(C(=O)N3CC[C@H](O)C3)nc2NC(=O)c2ccc(OC(F)F)cc2)c(F)c1 [WO2022076764, Example 57] | 1900 | 120 |
| COc1cc(F)c(-n2cc(C(=O)Nc3cn[nH]c3)nc2NC(=O)c2ccc(OC(F)F)cc2)c(F)c1 [WO2022076764, Example 62] | 830 | 32 |

The next molecules have a lower EC50 [1] than those just listed; values first:

| EC50 [1] [nM] | EC50 [2] [nM] | SMILES |
| --- | --- | --- |
| 210 | 27 | COc1ccc(-n2cc(C(=O)NCCCO)nc2NC(=O)c2ccc(OC(F)F)cc2)cc1 [WO2022076764, Example 46] |
| 88 | 8 | COc1cccc(-c2cn(-c3c(F)cc(OC)cc3F)c(NC(=O)c3ccc(OC(F)F)cc3)n2)c1 [WO2022076764, Example 3] |
| 100 | 9 | CCOC(=O)c1cn(-c2ccc(OC)cc2)c(NC(=O)c2ccc(OC(F)F)cc2)n1 [WO2022076764, Example 30] |
| 47 | 6 | COc1cc(F)c(-n2cc(-c3ccccc3F)nc2NC(=O)c2ccc(OC(F)F)cc2)c(F)c1 [WO2022076764, Example 25] |
| 120 | 16 | COc1cc(F)c(-n2cc(-c3ccnc(Cl)c3)nc2NC(=O)c2ccc(OC(F)F)cc2)c(F)c1 [WO2022076764, Example 34] |
| 300 | 23 | COc1cc(F)c(-n2cc(Cc3nnc(C)o3)nc2NC(=O)c2ccc(OC(F)F)cc2)c(F)c1 [WO2022076764, Example 73] |
| 19 | 5 | COc1ccc(-n2cc(-c3ccnc(Cl)c3)nc2NC(=O)c2ccc(OC(F)F)cc2)cc1 [WO2022076764, Example 20] |
| 76 | 29 | COc1ccc(-n2cc(-c3ccc(F)cc3F)nc2NC(=O)c2ccc(OC(F)F)cc2)cc1 [WO2022076764, Example 21] |
| 160 | 39 | COc1ccc(-c2cn(-c3c(F)cc(OC)cc3F)c(NC(=O)c3ccc(OC(F)F)cc3)n2)cc1 [WO2022076764, Example 14] |
| 83 | 54 | COc1cc(F)c(-n2cc(C3CCN(C(=O)CCC(N)=O)CC3)nc2NC(=O)c2ccc(OC(F)F)cc2)c(F)c1 [WO2022076764, Example 67] |
| 210 | 11 | COc1ccc(-n2cc(C3CCCNC3)nc2NC(=O)c2ccc(OC(F)F)cc2)cc1 (stereo not given) [WO2022076764, Example 64] |
| 200 | 7 | COc1cc(F)c(-n2cc(-c3cccc(F)c3)nc2NC(=O)c2ccc(OC(F)F)cc2)c(F)c1 [WO2022076764, Example 10] |
| 140 | 47 | COc1cc(F)c(-n2cc(-c3ccc(Cl)c(C)c3)nc2NC(=O)c2ccc(OC(F)F)cc2)c(F)c1 [WO2022076764, Example 5] |
| 110 | 18 | COc1ccc(-n2cc(C(C)(C)C)nc2NC(=O)c2ccc(OC(F)F)cc2)cc1 [WO2022076764, Example 32] |
